This test deals with SUV420H1 enzyme (Homo sapiens, UniProt Q4FZB7). Put plainly: TR-FRET SAH SUV420H1 enzyme inhibition assay. As to conditions: Histone Peptide H4(8-30)me1 and SAM, overnight at room temp, TR-FRET detection of SAH, read-out: TR-FRET SAH_SUV420H1 IC50. The test is classed as biochemical. In a few lines: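 SUV420H1 (90 nM) preincubated 30 min with compound (3-fold dilutions, 50 to 0.00075 μM), then H4(8-30)me1 peptide 5 nM and SAM 4 nM added, overnight at room temp. SAH product detected by TR-FRET with Tb anti-SAH antibody and Oregon Green-SAH in RIPA buffer, 4 h; IC50 from Hill fit, asymptotes fixed 0-100%.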
SUV420H1 enzyme, sequence (Q4FZB7 whole entry): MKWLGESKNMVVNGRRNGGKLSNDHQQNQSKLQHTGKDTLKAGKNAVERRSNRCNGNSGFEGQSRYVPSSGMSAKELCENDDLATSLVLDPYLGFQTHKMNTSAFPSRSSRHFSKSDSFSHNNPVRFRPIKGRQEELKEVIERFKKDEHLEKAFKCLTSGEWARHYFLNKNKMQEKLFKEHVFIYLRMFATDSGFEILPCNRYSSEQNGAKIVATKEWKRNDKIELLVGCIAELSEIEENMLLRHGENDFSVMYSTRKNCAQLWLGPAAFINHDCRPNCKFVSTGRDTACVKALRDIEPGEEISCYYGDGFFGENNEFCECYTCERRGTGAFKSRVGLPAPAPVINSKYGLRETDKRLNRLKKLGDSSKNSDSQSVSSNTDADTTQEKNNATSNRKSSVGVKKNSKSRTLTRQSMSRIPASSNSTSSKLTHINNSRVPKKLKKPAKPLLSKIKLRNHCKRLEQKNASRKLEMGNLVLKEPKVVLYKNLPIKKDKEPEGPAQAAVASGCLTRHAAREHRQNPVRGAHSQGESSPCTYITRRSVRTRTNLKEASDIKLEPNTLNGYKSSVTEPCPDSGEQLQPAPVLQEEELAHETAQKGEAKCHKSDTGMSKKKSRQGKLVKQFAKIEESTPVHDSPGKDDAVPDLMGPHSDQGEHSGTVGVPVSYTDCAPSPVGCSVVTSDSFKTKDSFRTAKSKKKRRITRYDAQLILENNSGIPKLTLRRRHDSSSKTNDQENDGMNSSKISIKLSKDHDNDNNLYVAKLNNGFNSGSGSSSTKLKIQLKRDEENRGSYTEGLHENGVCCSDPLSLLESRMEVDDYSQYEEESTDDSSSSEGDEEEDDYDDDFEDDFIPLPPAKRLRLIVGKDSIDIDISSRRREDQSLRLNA
(In general: Time-resolved FRET reads energy transfer from a long-lived donor to a nearby acceptor.)
In general, IC50 refers to the concentration that gives 50% inhibition. As to `NCc1cc2cc(-c3ccc(C(=O)NC4CC4)cc3)cc(Cn3cnc4c(N)ncnc43)c2[nH]1` [Example 50, 4-{2-(aminomethyl)-7-[(6-amino-9H-purin-9-yl)methyl]-1H-indol-5-yl}-N-cyclopropylbenzamide], the IC50 amounted to 0.223 µM. To `NCc1cc2cc(-c3ccccc3)cc(Cn3cnc4c(N)ncnc43)c2[nH]1` [Example 22, 9-{[2-(aminomethyl)-5-phenyl-1H-indol-7-yl]methyl}-9H-purin-6-amine] belongs 0.458 µM. In the case of `Cc1nc2ccc(C(=O)NCc3cc4cc(Cl)cc(Cn5cnc6c(N)ncnc65)c4[nH]3)cc2o1` [Example 359, N-({7-[(6-amino-9H-purin-9-yl)methyl]-5-chloro-1H-indol-2-yl}methyl)-2-methyl-1,3-benzoxazole-6-carboxamide] it was 4.28 µM.

As for `COc1ccccc1-c1cc(Cn2cnc3c(N)ncnc32)c2[nH]c(CN)cc2c1` [Example 36, 9-{[2-(aminomethyl)-5-(2-methoxyphenyl)-1H-indol-7-yl]methyl}-9H-purin-6-amine], the half-maximal inhibitory concentration (IC50) was 2.41 µM.

Take `Cc1cccc(C)c1C(=O)NCc1cc2cc(Cl)cc(Cn3cnc4c(N)ncnc43)c2[nH]1` [Example 295, N-({7-[(6-amino-9H-purin-9-yl)methyl]-5-chloro-1H-indol-2-yl}methyl)-2,6-dimethylbenzamide]: the IC50 was 0.607 µM. To `N#Cc1ccc(C(=O)NCc2cc3cc(C4=CCNCC4)cc(Cn4cnc5c(N)ncnc54)c3[nH]2)c(F)c1` [Example 286, N-({7-[(6-amino-9H-purin-9-yl)methyl]-5-(1,2,3,6-tetrahydropyridin-4-yl)-1H-indol-2-yl}methyl)-4-cyano-2-fluorobenzamide] belongs 0.0411 µM. For `COc1ccccc1CC(=O)NCc1cc2cc(Cl)cc(Cn3cnc4c(N)ncnc43)c2[nH]1` [Example 298, N-({7-[(6-amino-9H-purin-9-yl)methyl]-5-chloro-1H-indol-2-yl}methyl)-2-(2-methoxyphenyl)acetamide], the half-inhibitory concentration (IC50) was determined as 5.98 µM. Consider `Cc1cccc(CC(=O)NCc2cc3cc(Cl)cc(Cn4cnc5c(N)ncnc54)c3[nH]2)c1` [Example 293, N-({7-[(6-amino-9H-purin-9-yl)methyl]-5-chloro-1H-indol-2-yl}methyl)-2-(3-methylphenyl)acetamide], for which the half-maximal inhibitory concentration (IC50) amounted to 20.5 µM. In the case of `NCc1cc2cc(C3=CCOCC3)cc(Cn3cnc4c(N)ncnc43)c2[nH]1` [Example 12, 9-{[2-(aminomethyl)-5-(3,6-dihydro-2H-pyran-4-yl)-1H-indol-7-yl]methyl}-9H-purin-6-amine] it was 0.334 µM; in that of `CC(=O)N1CCC(c2cc(Cn3cnc4c(N)ncnc43)c3[nH]c(CN)cc3c2)CC1` [Example 17, 1-(4-{2-(aminomethyl)-7-[(6-amino-9H-purin-9-yl)methyl]-1H-indol-5-yl}piperidin-1-yl)ethanone], 0.635 µM; in that of `C=C(C)c1ccc(Cn2cnc3c(N)ncnc32)c2[nH]c(CN)cc12` [Example 65, 9-{[2-(aminomethyl)-4-(prop-1-en-2-yl)-1H-indol-7-yl]methyl}-9H-purin-6-amine], 5.08 µM. `Cn1nccc1C(=O)NCc1cc2cc(Cl)cc(Cn3cnc4c(N)ncnc43)c2[nH]1` [Example 152, N-({7-[(6-amino-9H-purin-9-yl)methyl]-5-chloro-1H-indol-2-yl}methyl)-1-methyl-1H-pyrazole-5-carboxamide]: the concentration for half-maximal inhibition (IC50) was found to be 1.08 µM. To `Cn1ccc2ccc(C(=O)NCc3cc4cc(Cl)cc(Cn5cnc6c(N)ncnc65)c4[nH]3)cc21` [Example 365] belongs 1.88 µM; to `CC(C)(C)CC(=O)NCc1cc2cc(Cl)cc(Cn3cnc4c(N)ncnc43)c2[nH]1` [Example 104, N-({7-[(6-amino-9H-purin-9-yl)methyl]-5-chloro-1H-indol-2-yl}methyl)-3,3-dimethylbutanamide], 18.2 µM; to `Cc1nc2ccc(C(=O)NCc3cc4cc(Cl)cc(Cn5cnc6c(N)ncnc65)c4[nH]3)cc2s1` [Example 358, N-({7-[(6-amino-9H-purin-9-yl)methyl]-5-chloro-1H-indol-2-yl}methyl)-2-methyl-1,3-benzothiazole-6-carboxamide], 0.889 µM. In the case of `CCC(=O)NCc1cc2cc(Cl)cc(Cn3cnc4c(N)ncnc43)c2[nH]1` [Example 94, N-({7-[(6-amino-9H-purin-9-yl)methyl]-5-chloro-1H-indol-2-yl}methyl)propanamide] it was 31.1 µM; in that of `Nc1ncnc2c1ncn2Cc1cc(Cl)cc2cc(CNC(=O)c3cnccn3)[nH]c12` [Example 193, N-({7-[(6-amino-9H-purin-9-yl)methyl]-5-chloro-1H-indol-2-yl}methyl)pyrazine-2-carboxamide], 20 µM. To `Nc1ncnc2c1ncn2Cc1cc(Cl)cc2cc(CNC(=O)CC3CCCC3)[nH]c12` [Example 121, N-({7-[(6-amino-9H-purin-9-yl)methyl]-5-chloro-1H-indol-2-yl}methyl)-2-cyclopentylacetamide] belongs 2.56 µM; to `Cn1ccnc1-c1ccccc1C(=O)NCc1cc2cc(Cl)cc(Cn3cnc4c(N)ncnc43)c2[nH]1` [Example 327, N-({7-[(6-amino-9H-purin-9-yl)methyl]-5-chloro-1H-indol-2-yl}methyl)-2-(1-methyl-1H-imidazol-2-yl)benzamide], 5.28 µM; to `Cn1cncc1C(=O)NCc1cc2cc(Cl)cc(Cn3cnc4c(N)ncnc43)c2[nH]1` [Example 153, N-({7-[(6-amino-9H-purin-9-yl)methyl]-5-chloro-1H-indol-2-yl}methyl)-1-methyl-1H-imidazole-5-carboxamide], 4.4 µM. Take `CC1CCCCC1C(=O)NCc1cc2cc(Cl)cc(Cn3cnc4c(N)ncnc43)c2[nH]1` (centres unmarked) [Example 132, N-({7-[(6-amino-9H-purin-9-yl)methyl]-5-chloro-1H-indol-2-yl}methyl)-2-methylcyclohexanecarboxamide]: the 50% inhibitory concentration (IC50) was 6.25 µM.

On to `CC1(C(=O)NCc2cc3cc(Cl)cc(Cn4cnc5c(N)ncnc54)c3[nH]2)CCCCC1` [Example 129, N-({7-[(6-amino-9H-purin-9-yl)methyl]-5-chloro-1H-indol-2-yl}methyl)-1-methylcyclohexanecarboxamide], for which the 50% inhibitory concentration (IC50) is 28.4 µM. To `Nc1ncnc2c1ncn2Cc1cc(Cl)cc2cc(CNC(=O)c3ccc4snnc4c3)[nH]c12` [Example 329, N-({7-[(6-amino-9H-purin-9-yl)methyl]-5-chloro-1H-indol-2-yl}methyl)-1,2,3-benzothiadiazole-5-carboxamide] belongs 0.41 µM. To `Cc1cc(C#N)ccc1C(=O)NCc1cc2cc(Cl)cc(Cn3cnc4c(N)ncnc43)c2[nH]1` [Example 303, N-({7-[(6-amino-9H-purin-9-yl)methyl]-5-chloro-1H-indol-2-yl}methyl)-4-cyano-2-methylbenzamide] belongs 0.0723 µM; to `Nc1ncnc2c1ncn2Cc1cc(Cl)cc2cc(CNC(=O)c3ccccc3OC3CCOCC3)[nH]c12` [Example 321, N-({7-[(6-amino-9H-purin-9-yl)methyl]-5-chloro-1H-indol-2-yl}methyl)-2-(tetrahydro-2H-pyran-4-yloxy)benzamide], 8.22 µM; to `Nc1ncnc2c1ncn2Cc1cc(Cl)cc2cc(CNC(=O)C3CCOC3)[nH]c12` (centres unmarked) [Example 114, N-({7-[(6-amino-9H-purin-9-yl)methyl]-5-chloro-1H-indol-2-yl}methyl)tetrahydrofuran-3-carboxamide], 8.16 µM.

Source of the values: patent US9932340B2, “Substituted indoles” (AbbVie Inc., priority 2014, dated 2018).
